# Test results from patent US5043450A, “8-alkoxyquinolonecarboxylic acid and salts thereof” (priority 1986, dated 1991).
# Read-outs that look alike come from different tables or passages of the source.
# Experiments:
# Assay type in all cases: cell-based
# E. coli ATCC 10536 = assay: Antibacterial spectra, MIC; details: Escherichia coli, ATCC10536
# [1] = tested on: Salmonella enteritidis IID 604; assay: Antibacterial spectra, MIC; details: Salmonella enterica
# B. distasonis 8503 = assay: Antibacterial spectra, MIC; details: Parabacteroides distasonis
# [2] = tested on: Yersinia enterocolitica IID 981; assay: Antibacterial spectra, MIC; details: IID981
# P. aeruginosa IFO 12689 = assay: Antibacterial spectra, MIC; details: Pseudomonas aeruginosa, IFO12689
# Shigella sonnei IID 969 = assay: Antibacterial spectra, MIC; details: IID969, 10^6 cells/ml, Gram -
# Protocol: (§1) The antibacterial test was carried out according to the method designated by Japan Society of Chemotherapy.
# [3] = tested on: Streptococcus pyogenes (S-8); assay: Antibacterial spectra, MIC; details: 10^6 cells/ml, Gram +
# Protocol: as §1
# E. coli ML 4707 = assay: Antibacterial spectra, MIC; details: Escherichia coli, ML4707; 10^6 cells/ml; Gram -
# Protocol: as §1
# E. faecalis IID 682 = assay: Antibacterial spectra, MIC; details: Enterococcus faecalis, IID682; 10^6 cells/ml; Gram +
# Protocol: as §1
# [4] = tested on: Proteus vulgaris IFO 3167; assay: Antibacterial spectra, MIC; details: IFO3167, 10^6 cells/ml, Gram -
# Protocol: as §1
# [5] = tested on: Eubacterium lentum GAI 5242; assay: Antibacterial spectra, MIC; details: Eggerthella lenta, GAI5242
# [6] = tested on: Escherichia coli NIHJ JC-2; assay: Antibacterial spectra, MIC; details: NIHJJC2
# [7] = tested on: Propionibacterium acens 11828; assay: Antibacterial spectra, MIC
# F. varium KYA 8501 = assay: Antibacterial spectra, MIC; details: Fusobacterium varium, KYA8501
# P. maltophilia GIFU 2491 = assay: Antibacterial spectra, MIC; details: Stenotrophomonas maltophilia, GIFU2491
# B. fragilis 0558 = assay: Antibacterial spectra, MIC; details: Bacteroides fragilis
# [8] = tested on: Peptostreptococcus anaerobius KYA 27337; assay: Antibacterial spectra, MIC; details: KYA27337
# K. pneumoniae 1-220S = assay: Antibacterial spectra, MIC; details: Klebsiella pneumoniae, 1220S
# F. necrophorum S-45 = assay: Antibacterial spectra, MIC; details: Fusobacterium necrophorum, S45
# P. cepacia GIFU 518 = assay: Antibacterial spectra, MIC; details: Burkholderia cepacia, GIFU518; 10^6 cells/ml; Gram -; read-out: MIC
# [9] = tested on: Morganella morganii IID 602; assay: Antibacterial spectra, MIC; details: IID602
# S. aureus Smith = assay: Antibacterial spectra, MIC; details: Staphylococcus aureus
# B. vulgatus KYA 29327 = assay: Antibacterial spectra, MIC; details: Phocaeicola vulgatus, KYA29327
# Pst. micros UPI 5464-1 = assay: Antibacterial spectra, MIC; details: Parvimonas micra, UPI54641
# [10] = tested on: Citrobacter freundii IID 976; assay: Antibacterial spectra, MIC; details: IID976
# [11] = tested on: B. thetaiotaomicron (0661); assay: Antibacterial spectra, MIC; details: Bacteroides thetaiotaomicron
# [12] = tested on: Staphylococcus aureus 209 P; assay: Antibacterial spectra, MIC
# [13] = tested on: Fusobacterium mortiferum 4249; assay: Antibacterial spectra, MIC
# [14] = tested on: Klebsiella pneumoniae KY(GN)6445; assay: Antibacterial spectra, MIC
# C. perfringens KYA 13123 = assay: microbe, parasite or virus in culture; details: Clostridium perfringens, KYA13123
# P. aeruginosa IID 1210 = assay: Antibacterial spectra, MIC; details: Pseudomonas aeruginosa, IID1210; 10^6 cells/ml; Gram -; read-out: MIC
# [15] = tested on: Serratia marcescens IID 618; assay: Antibacterial spectra, MIC; details: IID618
# C. ramosum = assay: Antibacterial spectra, MIC; details: Thomasclavelia ramosa
# [16] = tested on: Enterobacter cloacae IID 977; assay: Antibacterial spectra, MIC; details: IID977
# [17] = tested on: Pseudomonas aeruginosa V-1; assay: Antibacterial spectra, MIC; details: V1
# S. pyogenes IID 692 = assay: Antibacterial spectra, MIC; details: Streptococcus pyogenes, IID692
# [18] = tested on: Alcaligenes faecalis 0114002; assay: Antibacterial spectra, MIC
# [19] = tested on: Veillonella parvula KYA 10790; assay: Antibacterial spectra, MIC; details: KYA10790
# [20] = tested on: Peptococcus magnus KY 017; assay: Antibacterial spectra, MIC; details: Finegoldia magna, KY017
# [21] = tested on: Bacteroides fragilis GM 7000; assay: Antibacterial spectra, MIC
# B. fragilis 25285 = assay: Antibacterial spectra, MIC; details: Bacteroides fragilis
# P. mirabilis IID 994 = assay: Antibacterial spectra, MIC; details: Proteus mirabilis, IID994
# [22] = tested on: S. aureus IID 670 (Terajima); assay: Antibacterial spectra, MIC; details: Staphylococcus aureus, IID670
# S. pneumoniae IID 552 = assay: Antibacterial spectra, MIC; details: Streptococcus pneumoniae, IID552
# Bacilus subtilis PCI 219 = assay: Antibacterial spectra, MIC; details: Bacillus subtilis, PCI219
# [23] = tested on: Acinetobacter anitratus IID 876; assay: Antibacterial spectra, MIC; details: Acinetobacter calcoaceticus, IID876
# S. epidermidis IID 866 = assay: Antibacterial spectra, MIC; details: Staphylococcus epidermidis, IID866
# [24] = 10^6 cells/ml, Gram -, read-out: MIC
# [25] = 10^6 cells/ml, Gram +, read-out: MIC
structure (smiles),measurement,setting,value
"COc1c(N2CCC(N)C2)c(F)c(N)c2c(=O)c(C(=O)O)cn(C3CC3)c12 (stereo not drawn) [Exp. 11, 5-amino-7-(3-amino-1-pyrrolidinyl)-1-cyclopropyl-6-fluoro-1,4-dihydro-8-methoxy-4-oxo-3-quinolinecarboxylic acid]",MIC,E. coli ATCC 10536,0.025 µg/mL
same,MIC,[1],0.1 µg/mL
same,MIC,B. distasonis 8503; [24],12.5 µg/mL
same,MIC,[2],0.1 µg/mL
same,MIC,P. aeruginosa IFO 12689; [24],1.56 µg/mL
same,MIC,Shigella sonnei IID 969,0.025 µg/mL
same,MIC,[3],0.2 µg/mL
same,MIC,E. coli ML 4707,0.025 µg/mL
same,MIC,E. faecalis IID 682,0.2 µg/mL
same,MIC,[4],0.2 µg/mL
same,MIC,[5],0.39 µg/mL
same,MIC,[6],0.025 µg/mL
same,MIC,[7]; [25],6.25 µg/mL
same,MIC,F. varium KYA 8501; [24],25 µg/mL
same,MIC,P. maltophilia GIFU 2491,0.2 µg/mL
same,MIC,B. fragilis 0558; [24],1.56 µg/mL
same,MIC,[8],0.78 µg/mL
same,MIC,K. pneumoniae 1-220S,0.2 µg/mL
same,MIC,F. necrophorum S-45; [24],1.56 µg/mL
same,MIC,P. cepacia GIFU 518,1.56 µg/mL
same,MIC,[9],0.2 µg/mL
same,MIC,S. aureus Smith,0.025 µg/mL
same,MIC,B. vulgatus KYA 29327,0.78 µg/mL
same,MIC,Pst. micros UPI 5464-1,0.78 µg/mL
same,MIC,[10],0.05 µg/mL
same,MIC,[11]; [24],1.56 µg/mL
same,MIC,[12],0.025 µg/mL
same,MIC,[13],3.13 µg/mL
same,MIC,[14],0.05 µg/mL
same,MIC,C. perfringens KYA 13123,0.78 µg/mL
same,MIC,P. aeruginosa IID 1210,1.56 µg/mL
same,MIC,[15],0.2 µg/mL
same,MIC,C. ramosum; [25],1.56 µg/mL
same,MIC,[16],0.05 µg/mL
same,MIC,[17],0.78 µg/mL
same,MIC,S. pyogenes IID 692,0.39 µg/mL
same,MIC,[18],0.78 µg/mL
same,MIC,[19],0.78 µg/mL
same,MIC,[20],0.78 µg/mL
same,MIC,"[21]; GM7000, 10^6 cells/ml, Gram -, read-out: MIC",1.56 µg/mL
same,MIC,B. fragilis 25285; [24],1.56 µg/mL
same,MIC,P. mirabilis IID 994,0.1 µg/mL
same,MIC,[22],0.05 µg/mL
same,MIC,S. pneumoniae IID 552,0.2 µg/mL
same,MIC,Bacilus subtilis PCI 219,0.0125 µg/mL
same,MIC,[23],0.05 µg/mL
"CNCC1CCN(c2c(F)cc3c(=O)c(C(=O)O)cn(C4CC4)c3c2OC)C1 (stereo not drawn) [Exp. 8, 1-cyclopropyl-6-fluoro-1,4-dihydro-8-methoxy-7-(3-methylaminomethyl-1-pyrrolidinyl)-4-oxo-3-quinolinecarboxylic acid]",MIC,E. coli ATCC 10536,0.05 µg/mL
same,MIC,[1],0.1 µg/mL
same,MIC,B. distasonis 8503,3.13 µg/mL
same,MIC,[2],0.1 µg/mL
same,MIC,P. aeruginosa IFO 12689,3.13 µg/mL
same,MIC,Shigella sonnei IID 969,0.05 µg/mL
same,MIC,[3],0.05 µg/mL
same,MIC,E. coli ML 4707,0.05 µg/mL
same,MIC,E. faecalis IID 682,0.05 µg/mL
same,MIC,[4],0.05 µg/mL
same,MIC,[5],0.2 µg/mL
same,MIC,[6],0.025 µg/mL
same,MIC,[7],0.78 µg/mL
same,MIC,F. varium KYA 8501,3.13 µg/mL
same,MIC,P. maltophilia GIFU 2491,0.39 µg/mL
same,MIC,B. fragilis 0558,0.39 µg/mL
same,MIC,[8],0.2 µg/mL
same,MIC,K. pneumoniae 1-220S,0.1 µg/mL
same,MIC,F. necrophorum S-45,0.39 µg/mL
same,MIC,P. cepacia GIFU 518,1.56 µg/mL
same,MIC,[9],0.39 µg/mL
same,MIC,S. aureus Smith,0.05 µg/mL
same,MIC,B. vulgatus KYA 29327,3.13 µg/mL
same,MIC,Pst. micros UPI 5464-1,0.39 µg/mL
same,MIC,[10],0.05 µg/mL
same,MIC,[11],3.13 µg/mL
same,MIC,[12],0.05 µg/mL
same,MIC,[13],0.39 µg/mL
same,MIC,[14],0.05 µg/mL
same,MIC,C. perfringens KYA 13123,0.2 µg/mL
same,MIC,P. aeruginosa IID 1210,12.5 µg/mL
same,MIC,S. epidermidis IID 866,0.05 µg/mL
same,MIC,[15],0.2 µg/mL
same,MIC,C. ramosum,0.39 µg/mL
same,MIC,[16],0.2 µg/mL
same,MIC,[17],0.78 µg/mL
same,MIC,S. pyogenes IID 692,0.05 µg/mL
same,MIC,[18]; [24],1.56 µg/mL
same,MIC,[19],0.39 µg/mL
same,MIC,[20],≤ 0.05 µg/mL
same,MIC,[21]; GM7000,0.39 µg/mL
same,MIC,B. fragilis 25285,0.39 µg/mL
same,MIC,P. mirabilis IID 994,0.05 µg/mL
same,MIC,[22],0.05 µg/mL
same,MIC,S. pneumoniae IID 552,0.05 µg/mL
same,MIC,Bacilus subtilis PCI 219,0.025 µg/mL
same,MIC,[23],0.2 µg/mL
